2 compounds from PMC11259170, “Small-molecule probe for IBD risk variant GPR65 I231L alters cytokine signaling networks through positive allosteric modulation” (Science Advances, 2024) can be followed below.

Each structure is given as a SMILES string. Read-outs that look alike come from different tables or passages of the source.

Common to all, as to assay type: cell-based
One assay deals with T1, mGPR65-SmBiT (Mus musculus, UniProt Q61038).
T1 construct: expressed in transfected cells; host or cells: Expi293F (Gibco), transient transfection
T1 sequence (Q61038 whole entry): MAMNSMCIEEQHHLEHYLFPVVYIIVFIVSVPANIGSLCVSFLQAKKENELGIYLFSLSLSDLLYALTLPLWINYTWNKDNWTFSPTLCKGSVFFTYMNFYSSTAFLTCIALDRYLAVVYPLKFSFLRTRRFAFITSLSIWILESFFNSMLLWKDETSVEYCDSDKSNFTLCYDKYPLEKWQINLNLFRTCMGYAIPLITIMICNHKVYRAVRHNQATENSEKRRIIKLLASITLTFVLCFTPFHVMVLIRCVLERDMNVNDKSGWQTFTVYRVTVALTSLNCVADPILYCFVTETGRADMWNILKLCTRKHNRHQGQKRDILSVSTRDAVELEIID
In words: Nano-BiT target engagement, LgBiT-mGs recruitment to mGPR65-SmBiT. The settings on record: 10 μM. On the procedure:
(§1) Target engagement was measured in Expi293F (Gibco, 100044202) cells using the Nano-Glo Live Cell Assay System (Promega, N2011). Nano-BiT plasmids were cloned from GPR65-, GPR4-, and GPR68-Tango plasmids. GPR65-Tango (Addgene plasmid # 66370; http://n2t.net/addgene:66370; RRID:Addgene_66370), GPR4-Tango (Addgene plasmid # 66358; http://n2t.net/addgene:66358; RRID:Addgene_66358), and GPR68-Tango (Addgene plasmid # 66371; http://n2t.net/addgene:66371; RRID:Addgene_66371) were gifts from Bryan Roth. Expi293F cells were transfected 1 day before kinetics with 500 ng of each plasmid using ExpiFectamine 293 Transfection Kit (Gibco, A14525). After 24 hours, cells were collected, washed, and resuspended in room temperature 0.1% PBS-BSA, adjusted to pH 7.4 using 1 M NaOH. Cells were transferred to white opaque 96-well microplates (100 μl per well, PerkinElmer, 6005290), followed by addition of the Nano-Glo Live Cell Reagent (25 μl per well). Baseline luminescence was measured for 10 cycles (1 cycle = 90 s) before adding compounds. All luminescence measurements were made on BMG Labtech PHERAstar FSX. Data analysis was performed using GraphPad Prism.

In another assay the target is T2, hGPR4-SmBiT (Homo sapiens, UniProt P46093).
T2 construct: expressed in transfected cells; host or cells: Expi293F (Gibco), transient transfection
T2 sequence (P46093 whole entry): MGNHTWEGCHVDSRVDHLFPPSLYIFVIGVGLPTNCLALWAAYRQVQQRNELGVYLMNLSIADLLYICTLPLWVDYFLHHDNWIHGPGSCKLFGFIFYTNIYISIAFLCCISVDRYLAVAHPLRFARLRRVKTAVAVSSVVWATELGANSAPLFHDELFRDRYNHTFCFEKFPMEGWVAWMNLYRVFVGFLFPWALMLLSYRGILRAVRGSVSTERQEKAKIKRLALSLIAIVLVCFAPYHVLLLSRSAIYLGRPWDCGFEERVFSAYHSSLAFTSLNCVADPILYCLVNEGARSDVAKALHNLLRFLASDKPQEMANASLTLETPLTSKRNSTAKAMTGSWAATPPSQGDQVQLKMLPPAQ
Put plainly: Nano-BiT target engagement, LgBiT-mGs recruitment to hGPR4-SmBiT. The conditions noted are these: 10 μM. As to the method:
as §1

The target in the next assay is T3, hGPR65-SmBiT (Homo sapiens, UniProt Q8IYL9).
T3 construct: expressed in transfected cells; host or cells: Expi293F (Gibco), transient transfection
T3 sequence (Q8IYL9 whole entry): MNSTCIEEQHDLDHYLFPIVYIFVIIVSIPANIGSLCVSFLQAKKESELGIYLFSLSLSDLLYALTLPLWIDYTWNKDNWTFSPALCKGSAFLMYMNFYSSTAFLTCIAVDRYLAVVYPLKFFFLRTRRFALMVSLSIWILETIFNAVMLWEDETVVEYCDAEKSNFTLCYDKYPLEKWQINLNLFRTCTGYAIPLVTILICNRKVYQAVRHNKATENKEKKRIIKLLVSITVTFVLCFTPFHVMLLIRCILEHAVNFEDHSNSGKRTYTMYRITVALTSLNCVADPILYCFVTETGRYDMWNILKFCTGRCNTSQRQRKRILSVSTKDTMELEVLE
Put plainly: Nano-BiT target engagement, LgBiT-mGs recruitment to hGPR65-SmBiT in Expi293F cells. In a few lines: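 Expi293F cells co-transfected (500 ng each plasmid) with receptor-SmBiT and LgBiT-mGs constructs, assayed 24 h later in 0.1% PBS-BSA pH 7.4 at room temperature. Luminescence from Nano-Glo Live Cell Reagent recorded in 90 s cycles, with 10 baseline cycles before compound addition.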

Another assay concerns the target T4, hGPR65 (Homo sapiens, UniProt Q8IYL9).
T4 construct: expressed in transfected cells; host or cells: HeLa (ATCC CCL-2), lentiviral transduction, pLX317
In words: cAMP detection in HeLa expression cell line, hGPR65. The conditions noted are these: for Emax: HeLa, relative to 100uM forskolin (100%) and DMSO (0%), read-out: hGPR Max Activity %. In a few lines:
(§2)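 TR-FRET cAMP read-out (Lance Ultra; ex 337 nm, em 620 and 665 nm) after 1 h detection in the dark, following a 30 min RT stimulation of 1500 cells per well in pH 7.2 stimulation buffer with compound supplied as 10 mM DMSO stock. Cells: lentivirally transduced HeLa lines carrying V5-tagged GPCR or GFP, kept under 3 μg/ml puromycin.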

The target in a further assay is T5, mGPR65 (Mus musculus, UniProt Q61038).
T5 construct: expressed in transfected cells; host or cells: HeLa (ATCC CCL-2), lentiviral transduction, pLX317
T5 sequence (Q61038 whole entry): as the sequence (Q61038 whole entry) above
Put plainly: cAMP detection in HeLa expression cell line, mGPR65. The conditions noted are these: for Emax: HeLa, relative to 100uM forskolin (100%) and DMSO (0%), read-out: mGPR Max Activity %. The procedure, abridged:
as §2

[1] abbreviates: 1st hGPR column pair, NA = no activity.
The mark [2] stands for this setting: 2nd hGPR column pair, NA = no activity.
[3] abbreviates: 2nd mGPR column pair, NA = no activity.

T4 sequence (Q8IYL9 whole entry): as the sequence (Q8IYL9 whole entry) above

For `Cc1ccc(NC(=O)c2cnn3c(O)cc(-c4ccc(COC(C)C)cc4)nc23)nc1` [BRD5075, O=C(NC1=NC=C(C)C=C1)C2=C3N(N=C2)C(O)=CC(C4=CC=C(COC(C)C)C=C4)=N3], the “mGs recruitment / engagement of mGPR65” value at mGPR65-SmBiT was “showed engagement”. Moreover, the “activity after HCl versus water, mGPR65” value on mGPR65-SmBiT (HCl or H2O at cycle 10) is on record as “showed activity when preceded by the addition of HCl but not water”. The “response in cells expressing hGPR4-SmBiT” value on hGPR4-SmBiT was “failing to elicit responses”. On hGPR65-SmBiT (0-50 μM), the “effect of concentration on mGs recruitment” value was “dose-dependent effect”. The “mGs recruitment / engagement of hGPR65” value at hGPR65-SmBiT (10 μM) is “showed engagement”. Besides, at hGPR65-SmBiT (10 μM, HCl or H2O at cycle 10), the “activity after HCl versus water, hGPR65” value is given as “showed activity when preceded by the addition of HCl but not water”. Also, the “mode of action from pH-dependent cAMP production” value at hGPR65 (0 to 50 μM, pH range of 6.6 to 7.6) is on record as “PAMs”. The “activity for hGPR65 among prioritized molecules” value on hGPR65 (1.56 μM, pH 7.2) is “highest activity”. For the same compound, the Emax came out at 80.3% on hGPR65 (setting [1]), 78.6% at hGPR65 (setting [2]), 69.6% on mGPR65 (setting [3]) and 70.8% at mGPR65 (NA = no activity). Further, the EC50 (usually the midpoint of the concentration-response curve) is 0.377 µM at hGPR65 (hGPR EC50 (uM), NA = no activity); 1.2 µM at hGPR65 (hGPR EC50 (uM), pH 7.2, 30 min); 1.1 µM on hGPR65 (hGPR EC50, NA = no activity); 0.699 µM on hGPR65 (hGPR EC50, pH 7.2, 30 min); 0.952 µM at mGPR65 (mGPR EC50 (uM), 2nd mGPR column pair, NA = no activity); 1.04 µM at mGPR65 (mGPR EC50 (uM), first pair of columns, pH 7.2, 30 min). Further, the EC50 on mGPR65 (mGPR EC50 (uM), second pair of columns, pH 7.2, 30 min) was 0.997 µM; on mGPR65 (mGPR EC50 (uM), NA = no activity), 0.892 µM. In addition, on hGPR65 (pH 7.2), the “cAMP activity, hGPR65” value is given as “at least 40%”. Moreover, the “activity for mGPR65 among prioritized molecules” value at mGPR65 (1.56 μM, pH 7.2) is “highest activity”. Besides, at mGPR65 (HeLa cells), the “cAMP response against mGPR65 among prioritized compounds” value is given as “highest cAMP response”. Besides, on mGPR65 (pH 7.2), the “cAMP activity, mGPR65” value is given as “at least 40%”.

Consider `CN1N=C(SCc2ccc(Cl)cc2Cl)Sc2c1cnn(C)c2=O` [BTB09089, reference compound], for which the “mGs recruitment / engagement of mGPR65” value on mGPR65-SmBiT is “increases in luminescence independent of pH changes”. Besides, the “mGs recruitment / engagement of hGPR65” value at hGPR65-SmBiT (10 μM) was “limited activity toward hGPR65”. The EC50 at hGPR65 (1st hGPR column pair, NA = no activity, read-out: hGPR EC50) is 6.35 µM; on hGPR65 (2nd hGPR column pair, NA = no activity, read-out: hGPR EC50) it was 1.37 µM; on mGPR65 (2nd mGPR column pair, NA = no activity, read-out: mGPR EC50), 0.458 µM. Moreover, the Emax came to 53.5% at hGPR65 (setting [1]), 31.1% on hGPR65 (setting [2]), 76.4% at mGPR65 (setting [3]) and 82.8% on mGPR65 (NA = no activity).
